The values that follow come from patent US20080132484A1, “Method for Identifying Inhibitors Using a Homology Model of Polo-Like Kinase 1” (CYCLACEL LIMITED, priority 2003, published 2008).

“Also recorded” adds a separate entry of the source. Where two headings read alike, the source gives them in different places.

In general, IC50 refers to the concentration that inhibits the measured activity by half.

Assay [1] has as its target T1, PLK1 (Homo sapiens, UniProt P53350).
T1 construct: The PLK1 ORF was cloned into pSSP1 such that the resulting PLK1 translation product would have a 19 amino acid N-terminal tag; made in house; host or cells: Sf9 insect cells (baculovirus)
Put plainly: PLK1 kinase assay (CDC25C phosphorylation, [γ-32P]-ATP). The class given is biochemical. The conditions noted are these: for inhibition of PLK1: even at concentrations as high as 1 mM; for inhibition of PLK1 function: at concentrations up to 0.2 mM. The protocol:
PLK1 kinase activity was assayed using human CDC25C phosphatase as a substrate. The assays were carried out using 96-well microtitre plates by incubating CDC25C (2 μg/well) with 1 μg/well of purified human recombinant PLK1 and varying concentrations of the candidate compound in a total volume of […] of 20 mM Tris/HCl buffer pH 7.5, supplemented with 25 mM β-glycerophosphate, 5 mM EGTA, 1 mM DTT, and 1 mM NaVO3. Reaction was initiated by the addition of 100 μM ATP and 0.5 μCi of [γ-^32P]-ATP. The reaction mixture was incubated at 30° C. for 1 h, then stopped with 75 mM aq orthophosphoric acid, transferred onto a 96-well P81 filter plate (Whatman), dried, and the extent of CDC25C phosphorylation was assessed by scintillation counting using a Packard TopCount plate reader.
Adenosine, N-ethyhnaleimide, iodoacetamide, and thimerosal were obtained from Sigma Chemical Co. 2′-Thioadenosine was obtained from Calbiochem. […] All compounds were made up as 10 mM stocks in neat dimethylsulfoxide and fresh dilutions to the desired concentrations were made in assay buffer prior to the assay. The candidate compounds were incubated with the enzyme in the kinase assay buffer for the duration of the assay, usually 1 hour at 30° C. […] For each compound duplicate samples, one of which contained dithiothreitol (DTT) at 1 mM final concentration, were assayed.

Assay [2] deals with PKA (Homo sapiens, UniProt P17612). As to conditions: Table 14, published values; cited from earlier work.
Assay [3] addresses T2, Human recombinant CKII (Homo sapiens, UniProt P68400).
T2 construct: purchased New England Biolabs
Put plainly: Casein Kinase II (CKII) assay. The format is biochemical. As to conditions: at concentrations up to 0.2 mM. Here is the method: Reaction was initiated by the addition of 100 μM ATP and 0.25 μCi of [γ-^32P]-ATP. The reaction mixture was incubated at 30° C. for 15 minutes, then stopped with 75 mM aq orthophosphoric acid, transferred onto a 96-well P81 filter plate (Whatman), dried, and the extent of peptide phosphorylation was assessed by scintillation counting using a Packard TopCount plate reader.

In assay [4] the target is T1, PLK1. The experiment in a line: Kinetic analysis of PLK1 inhibition (ATP dependence). The class given is biochemical.
The target in assay [5] is CDK2 (Homo sapiens, UniProt P24941). The experiment in a line: CDK2 inhibition. The class given is biochemical. The conditions noted are these: Table 12.
The mark [6] stands for this setting: Table 14, read-out: Plk1 (IC50).
Setting [7] is: in the absence of dithiothreitol, read-out: IC50 (μM) − DTT.
Where [8] appears, read: in the presence of dithiothreitol (1 mM), read-out: IC50 (μM) + DTT.
Setting [9] is: Kinase inhibition, flavonoid compounds, read-out: Plk1 IC50.
Where [10] appears, read: read-out: IC50 with respect to PLK1.

T1 sequence (P53350 whole entry): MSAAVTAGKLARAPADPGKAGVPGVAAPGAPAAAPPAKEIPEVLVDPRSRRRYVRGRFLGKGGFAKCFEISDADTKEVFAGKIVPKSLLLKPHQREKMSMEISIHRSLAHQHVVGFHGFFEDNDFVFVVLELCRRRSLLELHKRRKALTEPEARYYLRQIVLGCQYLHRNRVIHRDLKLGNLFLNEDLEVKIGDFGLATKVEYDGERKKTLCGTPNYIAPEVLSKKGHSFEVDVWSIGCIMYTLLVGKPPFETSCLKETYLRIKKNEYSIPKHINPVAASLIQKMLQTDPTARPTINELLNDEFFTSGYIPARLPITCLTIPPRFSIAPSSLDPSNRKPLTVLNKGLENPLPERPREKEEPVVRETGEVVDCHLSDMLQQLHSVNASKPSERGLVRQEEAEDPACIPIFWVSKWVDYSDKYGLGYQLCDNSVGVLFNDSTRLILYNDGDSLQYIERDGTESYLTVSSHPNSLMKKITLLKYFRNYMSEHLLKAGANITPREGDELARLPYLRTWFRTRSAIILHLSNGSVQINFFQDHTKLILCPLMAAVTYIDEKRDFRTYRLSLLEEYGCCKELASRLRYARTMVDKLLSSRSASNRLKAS
T2 sequence (P68400 whole entry): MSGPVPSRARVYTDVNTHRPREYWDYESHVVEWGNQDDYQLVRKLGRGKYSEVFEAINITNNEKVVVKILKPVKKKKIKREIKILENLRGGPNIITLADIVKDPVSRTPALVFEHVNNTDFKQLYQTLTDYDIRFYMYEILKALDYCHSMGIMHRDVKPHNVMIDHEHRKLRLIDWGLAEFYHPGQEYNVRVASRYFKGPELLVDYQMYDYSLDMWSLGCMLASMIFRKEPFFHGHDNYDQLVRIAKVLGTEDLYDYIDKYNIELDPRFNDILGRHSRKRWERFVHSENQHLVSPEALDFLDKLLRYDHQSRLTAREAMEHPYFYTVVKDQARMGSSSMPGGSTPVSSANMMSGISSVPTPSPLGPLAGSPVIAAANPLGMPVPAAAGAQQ
T2 sequence (P67870 whole entry partner): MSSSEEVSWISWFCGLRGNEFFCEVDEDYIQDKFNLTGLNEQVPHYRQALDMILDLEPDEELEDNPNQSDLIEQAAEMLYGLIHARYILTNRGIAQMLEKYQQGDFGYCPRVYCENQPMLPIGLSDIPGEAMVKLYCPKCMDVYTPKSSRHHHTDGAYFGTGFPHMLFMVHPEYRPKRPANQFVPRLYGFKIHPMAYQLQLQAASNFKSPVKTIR

For Purvalanol A, in assay [1], the “PLK1 inhibition, result in words” value is “moderate inhibition”. For the same molecule, the 50% inhibitory concentration (IC50) in assay [1] (Table 12, read-out: Plk1 IC50) was 5 µM; in assay [1] (setting [6]), 10 µM; in assay [2], greater than 100 µM.
On to `O=c1c(O)c(-c2ccc(O)cc2)oc2cc(O)cc(O)c12` [kaepmpferol], for which the “PLK1 inhibition, result in words” value in assay [1] is reported as “lack of inhibition”.
For the molecule `C[CH2][Hg][S]c1ccccc1C(=O)[O-].[Na+]` [Thimerosal], the “PLK1 inhibition, result in words” value in assay [1] was “to some extent”. In addition, the IC50 was 22 µM in assay [1] (setting [7]) and greater than 200 µM in assay [1] (setting [8]). Further, the “inhibition of CKII enzymatic activity” value in assay [3] is recorded as “No significant inhibition”. In addition, in assay [4], the “mode of PLK1 inhibition with respect to ATP” value (“mode of PLK1 inhibition” for short) is on record as “none of these compounds were classical competitive inhibitors”.
Turning to `O=c1c(O)c(-c2ccc(O)cc2)oc2cc(O)cc(O)c12` [Kaempferol], the half-inhibitory concentration (IC50) in assay [1] (setting [9]) was greater than 100 µM.
As to `CCCCCCOC(=O)[C@]1(O)C[C@@H]2O[C@@]1(C)n1c3ccccc3c3c4c(c5c6ccccc6n2c5c31)C(=O)NC4` [KT5720], the 50% inhibitory concentration (IC50) is greater than 500 µM in assay [1] (setting [6]) and 0.056 µM in assay [2]. Besides, in assay [1], the “inhibition of PLK1” value is reported as “none of these compounds caused any inhibition”.
Regarding `CCN1C(=O)C=CC1=O` [N-ethylmaleimide], the “PLK1 inhibition, result in words” value in assay [1] is reported as “to some extent”. The IC50 was 55 µM in assay [1] (setting [7]) and greater than 200 µM in assay [1] (setting [8]). In addition, the “inhibition of CKII enzymatic activity” value in assay [3] is “No significant inhibition”.
On to `O=c1c(O)c(-c2ccccc2)oc2cc(O)cc(O)c12` [gangolin], for which the “PLK1 inhibition, result in words” value in assay [1] was “inactivity”.
For `Nc1ncnc2c1ncn2[C@@H]1O[C@H](CO)[C@@H](O)[C@H]1O` [Adenosine], the “inhibition of PLK1 function” value in assay [1] was “did not inhibit”. In addition, the IC50 in assay [1] (setting [7]) and in assay [1] (setting [8]) was greater than 200 µM in each case. For the same molecule, the “inhibition of CKII enzymatic activity” value in assay [3] is on record as “No significant inhibition”. In addition, the “mode of PLK1 inhibition” value in assay [4] is “none of these compounds were classical competitive inhibitors”.
For `O=c1c(O)c(-c2cc(O)c(O)c(O)c2)oc2cc(O)cc(O)c12` [Myricetin], the “PLK1 inhibition, result in words” value in assay [1] is on record as “lack of inhibition”. Further, the IC50 in assay [1] (setting [9]) and in assay [1] (setting [10]) was greater than 100 µM throughout.
Regarding `Cl.NCCNS(=O)(=O)c1cccc2c(Cl)cccc12` [Inhibitor A3], the values for the IC50 in assay [1] (setting [6]) and in assay [2] were greater than 500 µM and 11 µM, respectively. Also, the “inhibition of PLK1” value in assay [1] was “none of these compounds caused any inhibition”.
With `O=c1c(O)c(-c2cc(O)c(O)c(O)c2)oc2cc(O)ccc12` [robinetin], in assay [1], the “PLK1 inhibition, result in words” value is reported as “weak inhibition”. The 50% inhibitory concentration (IC50) in assay [1] (setting [9]) was determined as 60 µM.
Take `NC(=O)CI` [Iodoacetamide]: the “PLK1 inhibition, result in words” value in assay [1] is “to some extent”. For the same molecule, the 50% inhibitory concentration (IC50) in assay [1] (IC50 (μM) + DTT, in the presence of dithiothreitol (1 mM)) was greater than 200 µM; in assay [1] (IC50 (μM) − DTT, in the absence of dithiothreitol) it was 83 µM. For the same molecule, the “inhibition of CKII enzymatic activity” value in assay [3] is “No significant inhibition”.
Turning to `COc1ccc(-c2oc3cc(O)cc(O)c3c(=O)c2O)cc1` [kaempferide], the “PLK1 inhibition, result in words” value in assay [1] is listed as “inactivity”. In addition, the IC50 in assay [1] (setting [9]) was greater than 100 µM.
For the molecule `Nc1ncnc2c1ncn2[C@@H]1O[C@H](CO)[C@@H](O)[C@H]1S` [2′-Thioadenosine], the “inhibition of PLK1 function” value in assay [1] is on record as “did”. In addition, the values for the IC50 in assay [1] (setting [7]) and in assay [1] (setting [8]) were 120 µM and greater than 200 µM, respectively. Also, the “inhibition of CKII enzymatic activity” value in assay [3] is “No significant inhibition”. The “mode of PLK1 inhibition” value in assay [4] is reported as “none of these compounds were classical competitive inhibitors”.
As for `CNc1nc(C)c(-c2ccnc(Nc3ccc(O)cc3)n2)s1` [4-[4-(4-methyl-2-methylamino-thiazol-5-yl)-pyrimidin-2-ylamino]-phenol], the half-maximal inhibitory concentration (IC50) in assay [1] (setting [10]) turned out to be 4 µM.
With `Cc1ncc2ccccc2c1C#N` [4-Cyano-3-methylisoquinoline], the half-maximal inhibitory concentration (IC50) in assay [1] (setting [6]) was greater than 500 µM; in assay [2], 0.03 µM. Besides, the “inhibition of PLK1” value in assay [1] is recorded as “none of these compounds caused any inhibition”.
Take `O=c1c(O)c(-c2ccccc2O)oc2cc(O)cc(O)c12` [Datescefin]: the IC50 in assay [1] (setting [9]) was greater than 100 µM.
For `O=c1c(O)c(-c2ccc(O)c(O)c2)oc2cc(O)ccc12` [fisetin], the “PLK1 inhibition, result in words” value in assay [1] is “inactivity”. In addition, the 50% inhibitory concentration (IC50) in assay [1] (setting [9]) was greater than 100 µM.
The corresponding values for `O=c1c(-c2ccc(O)cc2)coc2cc(O)ccc12` [daidzein] are “inactivity” and greater than 100 µM.
As to `O=c1c(O)c(-c2ccccc2O)oc2cc(O)cc(O)c12` [Datescetin], in assay [1], the “PLK1 inhibition, result in words” value is “inactive”.
As for `O=c1c(O)c(-c2ccccc2)oc2cc(O)cc(O)c12` [Galangin], in assay [1] (setting [9]), the IC50 was greater than 100 µM.
Consider `O=c1cc(-c2ccc(O)c(O)c2)oc2cc(O)cc(O)c12` [Luteolin], for which the concentration for half-maximal inhibition (IC50) in assay [1] (setting [9]) was greater than 100 µM.
Turning to `O=S(=O)(NCCNC/C=C/c1ccc(Br)cc1)c1cccc2cnccc12` [Inhibitor H89], in assay [1], the “inhibition of PLK1” value is given as “none of these compounds caused any inhibition”.
Take `Nc1ncnc2c1ncn2[C@@H]1O[C@H](CS)[C@@H](O)[C@H]1O` [5′-Thioadenosine, 5′-Deoxy-5′-thioadenosine]: in assay [1], the “potency relative to 2′-thioadenosine on PLK1” value is “about 3 fold”. Further, in assay [1], the “inhibition of PLK1 function” value was “did”. For the same molecule, the IC50 was 39 µM in assay [1] (setting [7]) and greater than 200 µM in assay [1] (setting [8]). Also, in assay [3], the “inhibition of CKII enzymatic activity” value is given as “No significant inhibition”. Moreover, the “mode of PLK1 inhibition” value in assay [4] (listed as 5-′thioadenosine) is given as “none of these compounds were classical competitive inhibitors”; in assay [4] (listed as 5′-thioadenosine) it was “dependent on ATP concentration but not competitive with ATP”.
For the molecule `O=c1c(O)c(-c2ccc(O)cc2O)oc2cc(O)cc(O)c12` [morin hydrate], the “PLK1 inhibition, result in words” value in assay [1] is “the most potent in the flavonoid series”. Further, the IC50 came out at 12.6 ± 1.4 µM in assay [1] (setting [9]) and 12 µM in assay [1] (setting [10]).
On to `COC[C@H]1OC(=O)c2coc3c2[C@@]1(C)C1=C(C3=O)[C@@H]2CCC(=O)[C@@]2(C)C[C@H]1OC(C)=O` [Wortmannin], for which the “PLK1 inhibition, result in words” value in assay [1] is listed as “very potent inhibitor”. The same molecule gave an IC50 in assay [5] greater than 10 µM. The “mode of PLK1 inhibition” value in assay [4] is listed as “totally independent of ATP; also recorded: completely ATP-independent”.
For the molecule `O=C(N[C@@H]1CNCCC[C@H]1OC(=O)c1cc(O)c(C(=O)c2c(O)cccc2C(=O)O)c(O)c1)c1ccc(O)cc1` [Balanol], the “PLK1 inhibition, result in words” value in assay [1] is given as “no detectable inhibition”. The IC50 in assay [1] (setting [6]) was greater than 200 µM.
